Data: the PolyMetriX glass transition set
± gives the standard deviation of the reports.

Compound	glass transition temperature
*Oc1ccc(Oc2ccc(C(=O)c3ccc(NC(=O)c4ccc(C(=O)Nc5ccc(C(=O)c6ccc(*)cc6)cc5)cc4)cc3)cc2)cc1 (repeat unit)	224.00 °C
*O[Si](*)(C)CCCCCn1c2ccccc2c2ccccc21 (repeat unit)	7.00 °C
*c1ccc(Oc2ccc(Oc3ccc(NC(=O)c4ccc(Oc5cccc6c5C(=O)N(*)C6=O)cc4)cc3)cc2)cc1 (repeat unit)	244.00 °C
*c1cccc(OCCCCCOc2cccc(N3C(=O)c4ccc(-c5ccc6c(c5)C(=O)N(*)C6=O)cc4C3=O)c2)c1 (repeat unit)	165.00 °C
*CC1CCC(COC(=O)c2ccc(C(=O)O*)cc2)CC1 (repeat unit)	84.50 °C
*CC(*)C (repeat unit) [Poly(propylene)]	-24.6 ± 21 °C
*Oc1ccc(S(=O)(=O)c2ccc(Oc3ccc(/C=N/c4ccc(Oc5ccc(-c6ccc(Oc7ccc(/N=C/c8ccc(*)cc8)cc7)cc6)cc5)cc4)cc3)cc2)cc1 (repeat unit)	127.00 °C
*c1cccc(N2C(=O)c3cccc(Oc4c(C)cc(-c5cc(C)c(Oc6cccc7c6C(=O)N(*)C7=O)c(C)c5)cc4C)c3C2=O)c1 (repeat unit)	311.00 °C
*Oc1ccc(S(=O)(=O)c2ccc(Oc3ccc(C(c4ccc(*)cc4)(C(F)(F)F)C(F)(F)F)cc3)cc2[Si](C)(C)C)c([Si](C)(C)C)c1 (repeat unit)	172.00 °C
*C([2H])([2H])C(*)([2H])C([2H])([2H])[2H] (repeat unit)	0.00 °C
*CCCCCCCCCCCCOc1ccc(N(c2ccccc2)c2ccc(-c3ccc(N(c4ccccc4)c4ccc(O*)cc4)cc3)cc2)cc1 (repeat unit)	42.50 °C
*Oc1ccc(OC(=O)c2ccc(OCCCCCCCCCCCCOc3ccc(C(*)=O)cc3)cc2)cc1/C=C/c1ccncc1 (repeat unit)	94.30 °C
*c1ccc([Si](c2ccccc2)(c2ccccc2)c2ccc(-c3nnc(-c4ccc(-c5nnc(*)o5)cc4)o3)cc2)cc1 (repeat unit)	274.00 °C
*c1cccc(OP(=O)(Oc2cccc(-n3c(=O)c4cc5c(=O)n(*)c(=O)c5cc4c3=O)c2)c2ccccc2)c1 (repeat unit)	191.00 °C
*CC(*)CC(C)C (repeat unit)	35.20 °C
*Oc1ccc(S(=O)(=O)c2ccc(Oc3ccc(C4(c5ccc(Oc6ccc(S(=O)(=O)c7ccc(Oc8ccc(/C=C9\CC/C(=C\c%10ccc(*)cc%10)C9=O)cc8)cc7)cc6)cc5)CCCC4)cc3)cc2)cc1 (repeat unit)	240.00 °C
*CCN(CCOC(=O)Nc1ccc(C)c(NC(=O)O*)c1)c1ccc(/N=N/c2ccc(-c3nc4cc([N+](=O)[O-])ccc4[nH]3)cc2)cc1 (repeat unit)	188.00 °C
*Oc1ccc(Sc2ccc(Oc3ccc(-c4ccc(-c5ccc(*)c(C(F)(F)F)c5)cc4)cc3C(F)(F)F)cc2)cc1 (repeat unit)	164.50 °C
*c1ccc(NC(=O)c2cccc(C(=O)Nc3ccc(-n4c(=O)c5cc6c(=O)n(*)c(=O)c6cc5c4=O)cc3)c2)cc1 (repeat unit)	296.00 °C
*c1ccc(C(=O)Oc2ccc(C(C)(C)c3ccc(OC(=O)c4ccc(N5C(=O)CC(SCCOCCSC6CC(=O)N(*)C6=O)C5=O)cc4)cc3)cc2)cc1 (repeat unit)	143.00 °C
*Oc1ccc(Oc2ccc(S(=O)(=O)c3ccc(-c4ccc(S(=O)(=O)c5ccc(*)cc5)cc4)cc3)cc2)cc1 (repeat unit)	251.00 °C
*C(=O)c1ccc2c(c1)C(=O)N(c1c(C)cc(C(c3cc(C(F)(F)F)cc(C(F)(F)F)c3)c3cc(C)c(N4C(=O)c5ccc(*)cc5C4=O)c(C)c3)cc1C)C2=O (repeat unit)	301.10 °C

Compound	glass transition temperature
*c1ccc(Sc2ccc(Sc3ccc(Sc4ccc(Sc5ccc(N6C(=O)c7ccc(Sc8ccc(Sc9ccc(Sc%10ccc%11c(c%10)C(=O)N(*)C%11=O)cc9)cc8)cc7C6=O)cc5)s4)s3)s2)cc1 (repeat unit)	177.00 °C
*CC(O)COc1ccc(C(C)(C)c2ccc(OCC(O)COc3ccc(C(=O)Nc4ccc(O*)cc4)cc3)cc2)cc1 (repeat unit)	127.00 °C
*CC(O)COc1ccc(C(C)CC(C)(C)c2ccc(O*)cc2)cc1 (repeat unit)	75.00 °C
*c1cccc(P(=O)(c2ccc(Oc3ccc(C45CC6CC(CC(C6)C4)C5)cc3)cc2)c2cccc(N3C(=O)c4ccc(Oc5ccc6c(c5)C(=O)N(*)C6=O)cc4C3=O)c2)c1 (repeat unit)	290.00 °C
*CCOC(=O)/C=C/C(=O)O* (repeat unit)	-10.00 °C
*c1cc(CCCCCCO[Si](C)(C)C)c(*)s1 (repeat unit)	10.00 °C
*c1ccc(NC(=O)c2cc(C(=O)Nc3ccc(-c4nnc(*)o4)cc3)cc(N3C(=O)c4ccccc4C3=O)c2)cc1 (repeat unit)	327.00 °C
*CCCCCCCC(=O)OCCOC(=O)CCCCCCCC1OCC2(COC(*)OC2)CO1 (repeat unit)	0.00 °C
*C/C=C/C[Si](*)(C)CCCOc1ccc(-c2ccccc2)cc1 (repeat unit)	10.00 °C
*c1ccc2oc(-c3ccc(C(c4ccccc4)(c4ccc(-c5nc6cc(C(*)(c7ccccc7)C(F)(F)F)ccc6o5)cc4)C(F)(F)F)cc3)nc2c1 (repeat unit)	330.00 °C
*CCC(F)(F)C(*)(F)F (repeat unit)	-108.00 °C
*CC(C)(COC(=O)O*)C(=O)OCc1ccccc1 (repeat unit)	-2.00 °C
*C(=O)c1ccc(Oc2ccc(-c3ccc(Oc4ccc(C(=O)c5ccc6c(c5)C(=O)N(c5ccc(N7C(=O)c8ccc(*)cc8C7=O)cc5)C6=O)cc4)cc3)cc2)cc1 (repeat unit)	229.00 °C
*Oc1ccc(S(=O)(=O)c2ccc(Oc3ccc(NC(=O)c4ccc(Oc5ccc(C(C)(C)c6cccc(C(C)(C)c7ccc(Oc8ccc(C(=O)Nc9ccc(*)cc9)cc8)cc7)c6)cc5)cc4)cc3)cc2)cc1 (repeat unit)	167.00 °C
*CCOC(=O)C1C2C=CC(C2)C1C(=O)O* (repeat unit)	0.00 °C
*CCC(*)(C)C (repeat unit)	-12.00 °C
*c1ccc(OCCCCCCCCCCCOC(=O)c2cccc(C(=O)OCCCCCCCCCCCOc3ccc(-c4nnc(*)s4)cc3)c2)cc1 (repeat unit)	68.00 °C
*CC(CS(=O)(=O)CCC)O* (repeat unit)	43.00 °C
*c1ccc2c(c1)C(=O)N(c1ccc(Oc3ccc(N4C(=O)c5ccc(C(*)(C(F)(F)F)C(F)(F)F)cc5C4=O)cc3Br)c(Br)c1)C2=O (repeat unit)	299.00 °C
*c1ccc(Oc2ccc(Oc3ccc(N4C(=O)c5ccc(-c6ccc7c(c6)C(=O)N(*)C7=O)cc5C4=O)cc3)cc2)cc1 (repeat unit)	278.00 ± 14 °C
*CCCCCCCCCC[N+](*)(C)C (repeat unit)	65.90 °C
*CCOC(=O)Nc1ccc(CCc2ccc(NC(=O)O*)cc2)cc1 (repeat unit)	116.90 °C

Compound	glass transition temperature
*C(=O)c1ccc2c(c1)C(=O)N(c1cccc(Nc3nc(Nc4cccc(N5C(=O)c6ccc(*)cc6C5=O)c4)nc(N(C)C)n3)c1)C2=O (repeat unit)	294.00 °C
*CCN* (repeat unit) [poly(2-oxazoline)s]	-35.77 ± 17 °C
*OC(COC(*)=O)COc1ccccc1 (repeat unit)	45.00 °C
*Oc1ccc(CC(NC(=O)CCc2ccc(OC(=O)CCCCC(*)=O)cc2)C(=O)OC(C)C)cc1 (repeat unit)	56.50 °C
*Oc1ccc(CCNC(=O)c2cccc(C(=O)NCCc3ccc(OC(=O)c4cccc(C(*)=O)c4)cc3)c2)cc1 (repeat unit)	147.00 °C
*Oc1ccc(NC(=O)c2cccc(C(=O)Nc3ccc(Oc4ccc(C(c5ccc(*)cc5)(C(F)(F)F)C(F)(F)F)cc4)cc3)c2)cc1 (repeat unit)	228.50 °C
*CC(*)OC(=O)C(C)(C)C(C)C(C)C (repeat unit)	55.00 °C
*O[Si](C)(CCC(F)(F)F)CCC(F)(F)C(F)(F)C(F)(F)C(F)(F)C(F)(F)C(F)(F)C(F)(F)C(F)(F)CC[Si](*)(C)CCC(F)(F)F (repeat unit)	-28.00 °C
*Nc1ccc(Cc2ccc(NC(=O)c3cc(C(*)=O)cc(N4C(=O)C5CC=CCC5C4=O)c3)cc2)cc1 (repeat unit)	286.00 °C
*CC(C)(C)C1C(=O)N(CCCC)C(=O)C1* (repeat unit)	80.00 °C
*OP(=O)(Oc1ccc(*)cc1)OC1CCCCC1 (repeat unit)	108.00 °C
*CCN(CCOC(=O)Nc1ccc(C)c(NC(=O)O*)c1)c1ccc(/N=N/c2ccc(-c3nc4ccccc4o3)cc2)cc1 (repeat unit)	152.00 °C
*CCCCCCCCCCN1C(=O)c2ccc(Oc3ccc4c(c3)C(=O)N(*)C4=O)cc2C1=O (repeat unit)	91.50 °C
*CCOCCOC(=O)c1ccc(N/C=N/c2ccc(C(=O)O*)cc2)cc1 (repeat unit)	77.00 °C
*Oc1ccc(CC(NC(=O)CCc2ccc(OC(=O)CCCCCCCCC(*)=O)cc2)C(=O)OCCCC)cc1 (repeat unit)	30.00 °C
*CC(*)c1cccc2ccccc12 (repeat unit)	160.00 °C
*CC(*)OC(=O)c1cccc([Si](C)(C)C)c1 (repeat unit)	80.00 °C
*OC(F)(F)COC(=O)c1cc(OCCCCC)cc(C(=O)OCC(*)(F)F)c1 (repeat unit)	14.00 °C
*c1cccc(CCCOc2cccc(N3C(=O)c4cccc(-c5ccc6c(c5)C(=O)N(*)C6=O)c4C3=O)c2)c1 (repeat unit)	178.00 °C
*CC(*)c1ccc(COCCOCCCC)cc1 (repeat unit)	-38.00 °C
*CCOC(=O)Nc1ccc(C)c(NC(=O)OCCOc2cc([N+](=O)[O-])ccc2/N=N/c2cn(*)c3ccc(-c4ccccc4)cc23)c1 (repeat unit)	165.00 °C
